Reference: patent US10265310B2, “6-membered cyclic amines or lactames substituted with urea and phenyl” (GRÜNENTHAL GMBH, priority 2016, dated 2019)

How the values were obtained:
[1] = biological target: FPR2 (Homo sapiens (Human), UniProt P25090); test: Agonistic activity (calcium FLIPR) in hFPR2-Aq-CHO cells; format: cell-based; conditions: FLIPR Calcium 5 dye fluorescence, agonistic response
Summary of the method: (§1)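 CHO cells expressing hFPR1-Gα15 or hFPR2-Aq were plated 18 hours, then loaded with Calcium 5 dye (pH 7.4, probenecid) for 30 minutes at 37° C. Compounds (final 10 μM to 100 pM, 11 half-log points) were added on FLIPR, with fluorescence followed for 5 minutes. EC50 came from the rise over basal relative to no-compound wells.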

[2] = biological target: FPR1 (Homo sapiens (Human), UniProt P21462); test: Agonistic activity (calcium FLIPR) in hFPR1-Gα15-CHO cells; format: cell-based; conditions: FLIPR Calcium 5 dye fluorescence, agonistic response
Summary of the method: as §1

Chain of FPR2 (P25090 whole entry): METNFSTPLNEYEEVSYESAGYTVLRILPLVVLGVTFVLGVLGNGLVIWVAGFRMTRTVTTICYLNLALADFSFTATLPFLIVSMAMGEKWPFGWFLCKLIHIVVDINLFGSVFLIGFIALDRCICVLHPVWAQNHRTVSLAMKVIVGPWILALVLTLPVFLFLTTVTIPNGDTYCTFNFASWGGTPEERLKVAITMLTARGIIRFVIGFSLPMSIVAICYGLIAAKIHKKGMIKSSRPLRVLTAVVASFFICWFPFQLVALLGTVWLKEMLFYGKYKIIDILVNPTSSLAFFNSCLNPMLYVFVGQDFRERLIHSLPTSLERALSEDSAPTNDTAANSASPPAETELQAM
Chain of FPR1 (P21462 whole entry): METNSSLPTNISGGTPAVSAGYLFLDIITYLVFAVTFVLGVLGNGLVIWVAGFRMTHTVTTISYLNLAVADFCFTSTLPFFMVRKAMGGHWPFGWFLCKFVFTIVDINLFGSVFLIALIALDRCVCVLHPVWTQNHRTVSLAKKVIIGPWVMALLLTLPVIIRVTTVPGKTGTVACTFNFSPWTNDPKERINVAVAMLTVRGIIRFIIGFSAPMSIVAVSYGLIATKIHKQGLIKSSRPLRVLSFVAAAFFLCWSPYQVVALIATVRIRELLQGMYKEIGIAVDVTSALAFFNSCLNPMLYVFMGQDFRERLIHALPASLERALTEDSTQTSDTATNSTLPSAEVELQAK

Row | SMILES | EC50 [1] [nM] | EC50 [2] [nM]
1 | COc1cc(F)c([C@@H]2CC(=O)NC[C@H]2NC(=O)Nc2cc3ccccc3s2)c(F)c1 (racemic) [Example 53, rac-trans-1-(Benzo[b]thiophen-2-yl)-3-[4-(2,6-difluoro-4-methoxy-phenyl)-6-oxo-piperidin-3-yl]-urea] | 1 to 1000 | 1 to 1000
2 | O=C1C[C@@H](c2c(F)cc(OC(F)F)cc2F)[C@H](NC(=O)Nc2ccc(Cl)cc2)CN1 (racemic) [Example 70, rac-trans-1-(4-chlorophenyl)-3-(4-(4-(difluoromethoxy)-2,6-difluorophenyl)-6-oxopiperidin-3-yl)urea] | 1 to 1000 | 1 to 1000
3 | COc1ccc([C@@H]2CCN(C(C)=O)C[C@H]2NC(=O)Nc2ccc(C(F)(F)F)nc2)cc1 (racemic) [Example 27, rac-trans-1-(1-acetyl-4-(4-methoxyphenyl)piperidin-3-yl)-3-(6-(trifluoromethyl)pyridin-3-yl)urea] | 1 to 1000 | 1 to 1000
4 | O=C1CC(c2ccc(F)cc2F)C(NC(=O)Nc2ccc(Cl)cc2)CN1 (single isomer, unassigned; ent2) [Example 68, trans-ent2-1-(4-Chlorophenyl)-3-[4-(2,4-difluoro-phenyl)-6-oxo-piperidin-3-yl]-urea] | 1 to 1000 | 1 to 1000
5 | COc1cc(F)c([C@@H]2CC(=O)NC[C@H]2NC(=O)Nc2ccc(Cl)c(F)c2)c(F)c1 (racemic) [Example 58, rac-trans-1-(4-Chloro-3-fluoro-phenyl)-3-[4-(2,6-difluoro-4-methoxy-phenyl)-6-oxo-piperidin-3-yl]-urea] | 1 to 1000 | 1 to 1000
6 | COc1cc(F)c(C2CCNCC2NC(=O)Nc2ccc(Cl)cc2)c(F)c1 (single isomer, unassigned; ent2) [Example 37, trans-ent2-1-(4-chlorophenyl)-3-(4-(2,6-difluoro-4-methoxyphenyl)piperidin-3-yl)urea] | 1 to 1000 | 1 to 1000
7 | COCCN1CC(NC(=O)Nc2ccc(Cl)cc2)C(c2ccc(F)cc2F)CC1=O (single isomer, unassigned; ent1) [Example 63, trans-ent1-1-(4-Chlorophenyl)-3-[4-(2,4-difluoro-phenyl)-1-(2-methoxy-ethyl)-6-oxo-piperidin-3-yl]-urea] | 1 to 1000 | 1 to 1000
8 | COc1ccc(C2CC(=O)NCC2NC(=O)Nc2ccc(Cl)cc2)c(F)c1 (single isomer, unassigned; ent2) [Example 43, trans-ent2-1-(4-chlorophenyl)-3-(4-(2-fluoro-4-methoxyphenyl)-6-oxopiperidin-3-yl)urea] | 1 to 1000 | 1 to 1000
9 | O=C1CC(c2ccc(F)cc2F)C(NC(=O)Nc2ccc(Cl)cc2)CN1 (single isomer, unassigned; ent1) [Example 67, trans-ent1-1-(4-Chlorophenyl)-3-[4-(2,4-difluoro-phenyl)-6-oxo-piperidin-3-yl]-urea] | 1 to 1000 | 1 to 1000
10 | O=C(Nc1ccc(Cl)cc1)NC1CN(C(=O)C2CC2)CCC1c1ccccc1 (single isomer, unassigned; ent1) [Example 83, trans-ent1-1-(4-chlorophenyl)-3-(1-(cyclopropanecarbonyl)-4-phenylpiperidin-3-yl)urea] | 1 to 1000 | 1 to 1000
11 | COc1ccc(C2CC(=O)NCC2NC(=O)Nc2ccc(Cl)cc2)cc1 (single isomer, unassigned; ent2) [Example 77, trans-ent2-1-(4-chlorophenyl)-3-(4-(4-methoxyphenyl)-6-oxopiperidin-3-yl)urea] | 1 to 1000 | 1 to 1000
12 | O=C(Nc1ccc(Cl)cc1)NC1CNCCC1c1ccccc1 (single isomer, unassigned; ent1) [Example 80, trans-ent1-1-(4-chlorophenyl)-3-(4-phenylpiperidin-3-yl)urea] | 1 to 1000 | 1 to 1000
13 | COc1ccc([C@@H]2CCN(C(C)=O)C[C@H]2NC(=O)Nc2cncnc2)cc1 (racemic) [Example 25, rac-trans-1-(1-acetyl-4-(4-methoxyphenyl)piperidin-3-yl)-3-(pyrimidin-5-yl)urea] | 1 to 1000 | 1 to 1000

Results, then the molecule that gave them:

Row | EC50 [1] [nM] | EC50 [2] [nM] | SMILES
14 | < 1 | < 1 | COc1ccc(C2CC(=O)N(CC(F)F)CC2NC(=O)Nc2ccc(Cl)cc2)c(F)c1 (single isomer, unassigned; ent1) [Example 61, trans-ent1-1-(4-Chlorophenyl)-3-[1-(2,2-difluoro-ethyl)-4-(2-fluoro-4-methoxy-phenyl)-6-oxo-piperidin-3-yl]-urea]
15 | < 1 | 1 to 1000 | COc1cc(F)c(C2CCNCC2NC(=O)Nc2ccc(Cl)cc2)c(F)c1 (single isomer, unassigned; ent1) [Example 36, trans-ent1-1-(4-chlorophenyl)-3-(4-(2,6-difluoro-4-methoxyphenyl)piperidin-3-yl)urea]
16 | < 1 | < 1 | COc1ccc([C@@H]2CCN(C(=O)CCO)C[C@H]2NC(=O)Nc2ccc(Cl)cc2)cc1 (racemic) [Example 30, rac-trans-1-(4-chlorophenyl)-3-(1-(3-hydroxypropanoyl)-4-(4-methoxyphenyl)piperidin-3-yl)urea]
17 | < 1 | 1 to 1000 | COc1ccc([C@@H]2CC(=O)N(CC3CC3)C[C@H]2NC(=O)Nc2ccc(Cl)cc2)cc1 (racemic) [Example 24, rac-trans-1-(4-chlorophenyl)-3-(1-(cyclopropylmethyl)-4-(4-methoxyphenyl)-6-oxopiperidin-3-yl)urea]
18 | < 1 | 1 to 1000 | COc1cc(F)c([C@@H]2CC(=O)NC[C@H]2NC(=O)Nc2ccc(Cl)c(O)c2)c(F)c1 (racemic) [Example 57, rac-trans-1-(4-Chloro-3-hydroxy-phenyl)-3-[4-(2,6-difluoro-4-methoxy-phenyl)-6-oxo-piperidin-3-yl]-urea]
19 | < 1 | 1 to 1000 | COc1cc(F)c([C@@H]2CC(=O)NC[C@H]2NC(=O)Nc2ccc(Oc3ccccc3)cc2)c(F)c1 (racemic) [Example 54, rac-trans-1-[4-(2,6-Difluoro-4-methoxy-phenyl)-6-oxo-piperidin-3-yl]-3-(4-phenoxy-phenyl)-urea]
20 | < 1 | < 1 | COc1ccc([C@@H]2CCN(C(=O)C3CCOCC3)C[C@H]2NC(=O)Nc2ccc(Cl)cc2)cc1 (racemic) [Example 16, rac-trans-1-(4-chlorophenyl)-3-(4-(4-methoxyphenyl)-1-(tetrahydro-2H-pyran-4-carbonyl)piperidin-3-yl)urea]
21 | < 1 | < 1 | COc1ccc([C@@H]2CCN(C(=O)CO)C[C@H]2NC(=O)Nc2ccc(Cl)cc2)cc1 (racemic) [Example 13, rac-trans-1-(4-chlorophenyl)-3-(1-(2-hydroxyacetyl)-4-(4-methoxyphenyl)piperidin-3-yl)urea]
